Measurements published in patent US5260309A, “4,5,6,11-tetrahydrobenzo [6,7] cycloocta [1,2-b]thiophen-6,11-imines and 6,11-dihydrobenzo [6,7] cycloocta [1,2-b] thiophen-6,11-imines” (Pfizer Inc., priority 1992, dated 1993).

System: P2 membranes from rat forebrain (3H-TCP binding)
Assay: 3H-TCP binding assay (displacement of 3H-TCP from P2 membranes from rat forebrain)
Settings: for IC50: rat forebrain P2 membranes, pH 7.4, 20 minutes at 30° C.
Experimental: P2 membranes from rat forebrain were suspended in 5 mM tris(hydroxymethyl)aminomethane hydrochloride buffer (pH 7.4). A solution of the test compound in H2 O or DMSO/H2 O was added followed by a solution of ^3 H-TCP The mixture was incubated for 20 minutes at 30° C. and then injected onto a glass fiber filter. The filters were washed with cold buffer and placed in vials for subsequent liquid scintillation spectrometry. IC50 were calculated from the amount of tritium label retained on the filters.

[1] = upper bound stated for the group in micromolar
[2] = upper bound stated for the group in nanomolar

Compound	IC50 [1]	IC50 [2]	other results
CC12NC(CCc3ccsc31)c1ccccc12 (single isomer, unassigned; (+)) [(+)-enantiomer, (+)-11-methyl-4,5,6,11-tetrahydrobenzo[6,7]cycloocta[1,2-b]-thiophen-6,11-imine]	–	–	times as active as the (-)-enantiomer in the 3H-TCP binding assay (activity ratio (+)-enantiomer vs (-)-enantiomer): approximately eight
CC12NC(CCc3cc(Br)sc31)c1ccccc12 (stereo not drawn) [15 (free amine), 2-bromo-11-methyl-4,5,6,11-tetrahydrobenzo[6,7]cycloocta[1,2-b]thiophen-6,11-imine]	≤ 2 µM	–	–
c1ccc2c(c1)C1CCc3ccsc3C2N1 (stereo not drawn) [Example 4, 4,5,6,11-Tetrahydrobenzo[6,7]cycloocta[1,2-b]thiophen-6,11-imine]	≤ 2 µM	–	–
CC12NC(CCc3ccsc31)c1ccccc12 (stereo not drawn) [Example 9, 11-Methyl-4,5,6,11-tetrahydrobenzo[6,7]cycloocta-[1,2-b]thiophen-6,11-imine]	–	≤ 0.04 µM	–
CSc1cc2c(s1)C1(C)NC(CC2)c2ccccc21 (stereo not drawn) [Example 14, 2-Methylthio-11-methyl-4,5,6,11-tetrahydrobenzo[6,7]-cycloocta[1,2-b]thiophen-6,11-imine]	≤ 2 µM	–	–
CC12NC(CCc3cc(Cl)sc31)c1ccccc12 (stereo not drawn) [Example 16, 2-Chloro-11-methyl-4,5,6,11-tetrahydrobenzo[6,7]-cycloocta[1,2-b]thiophen-6,11-imine]	≤ 2 µM	–	–
CC12NC(C=Cc3ccsc31)c1ccccc12 (stereo not drawn) [Example 18, 11-Methyl-6,11-dihydrobenzo[6,7]cycloocta[1,2-b]thiophen-6,11-imine]	≤ 2 µM	–	–
CC12NC(CCc3ccsc31)c1cc(F)ccc12 (stereo not drawn) [Example 22, 8-Fluoro-11-methyl-4,5,6,11-tetrahydrobenzo[6,7]-cycloocta[1,2-b]thiophen-6,11-imine]	–	≤ 0.04 µM	–
Cc1ccc2c(c1)C1CCc3ccsc3C2(C)N1 (stereo not drawn) [Example 26, 8.11-Dimethyl-4,5,6,11-tetrahydrobenzo[6,7]cycloocta-[1,2-b]thiophen-6,11-imine]	–	≤ 0.04 µM	–
